Data: patent US20250340577A1, “BETA-LACTOMASE INHIBITORS AND USES THEREOF” (Case Western Reserve University, priority 2021, published 2025)
Where two headings read alike, the source gives them in different places.

Tests used:
E. coli 29838 = test: MIC with cefepime, agar microdilution, CLSI; assay type: cell-based; settings: compound fixed at 4 ug/ml; CTX-M-14, TEM-1
In short: (§1)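 Test compound kept at 4 ug/ml throughout, combined with cefepime. MICs were read by agar microdilution according to CLSI.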

E. coli DH10B pBC-SK P99 = test: MIC with cefepime, agar microdilution, CLSI; assay type: cell-based; settings: compound fixed at 4 ug/ml
In short: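 MIC values come from agar microdilution run to CLSI guidelines. The compound was present at a constant 4 ug/ml while cefepime was varied.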

[1] = test system: E. coli DH10B pBC-SK PDC-3; test: MIC with cefepime, agar microdilution, CLSI; assay type: cell-based; settings: compound fixed at 4 ug/ml
In short: as §1

K. pneumoniae 34700 = test: MIC with cefepime, agar microdilution, CLSI; assay type: cell-based; settings: compound fixed at 4 ug/ml; CTX-M-15, SHV, TEM
In short: as §1

K. pneumoniae ST258 B5 = test: MIC with cefepime, agar microdilution, CLSI; assay type: cell-based; settings: compound fixed at 4 ug/ml; KPC-2
In short: as §1

K. pneumoniae ST258 C3 = test: MIC with cefepime, agar microdilution, CLSI; assay type: cell-based; settings: compound fixed at 4 ug/ml; KPC-3
In short: as §1

[2] = test system: Klebsiella pneumonia/BAA-1705; test: MIC of MB076 alone or in combination with cefepime or meropenem; assay type: cell-based; settings: Klebsiella pneumoniae, BAA1705; single agent; read-out: MIC
Method: (§2) MICs were determined by the Agar microdilution method, following CLSI guidelines. Compounds were tested at fixed concentration of 4 ug/ml in combination with cefepime.

[3] = test system: Klebsiella pneumonia/FDA-CDC AR-BANK#0097; test: as above; assay type: cell-based; settings: Klebsiella pneumoniae; single agent; read-out: MIC
Method: as §2

[4] = test system: Klebsiella pneumonia/FDA-CDC AR-BANK#0098; test: as above; assay type: cell-based; settings: Klebsiella pneumoniae; single agent; read-out: MIC
Method: as §2

[5] = test system: K. pneumoniae AR-BANK #0098 (KPC-2); assay type: in vivo; settings: for T > MIC / Time High / Time Low: female, ICR, mouse, in vivo, iv
Method: A single dose PK study with MB_076 has been conducted to evaluate antibiotic exposure over time in plasma samples and thigh homogenates following a single dose IV administration in K. pneumoniae AR-BANK #0098 (KPC-2) thigh infection model with neutropenic female ICR mice. Among the PK parameters, t1/2, C0, AUClast, AUCINF, Vss and CL were evaluated (Table 7), while for PD parameters, C0/MIC, AUClast/MIC and T>MIC were calculated (Table 8). In particular, the % time over the minimum inhibitory concentration (T>MIC) was calculated for all dose groups to determine the impact of MB076 efficacy in this animal model. Plots of concentration in plasma and thigh homogenate versus time were created and the linearity of the resulting PK parameters was assessed.

## Nc1nnc(SCC(=O)NC(Cn2cc(C(=O)O)nn2)B(O)O)s1 (stereo not drawn) [MB076]
E. coli 29838
  MIC of cefepime in combination with compound: < 0.25 µg/mL
E. coli DH10B pBC-SK P99
  MIC of cefepime in combination with compound: < 0.25 µg/mL
[1]
  MIC of cefepime in combination with compound: < 0.25 µg/mL
K. pneumoniae 34700
  MIC of cefepime in combination with compound: 1 µg/mL
K. pneumoniae ST258 B5
  MIC of cefepime in combination with compound: 8 µg/mL
K. pneumoniae ST258 C3
  MIC of cefepime in combination with compound: 1 µg/mL
[2]
  MIC: > 32 µg/mL
[3]
  MIC: > 32 µg/mL
[4]
  MIC: > 32 µg/mL
[5]; 12.5 mg/kg
  T > MIC: 1.69%
  Time High: 0.40 h
  Time Low: 23.60 h
[5]; 12.5 mg/kg, 24 h
  T > MIC: 0.24%
  Time High: 0.06 h
  Time Low: 23.94 h
[5]; 50 mg/kg
  T > MIC: 1.75%
  Time High: 0.42 h
[5]; 50 mg/kg, 24 h
  T > MIC: 3.89%
  Time High: 0.93 h
[5]; 100 mg/kg
  T > MIC: 2.72%
  Time High: 0.65 h
  Time Low: 23.35 h
[5]; 100 mg/kg, 24 h
  T > MIC: 4.51%
  Time High: 1.08 h
  Time Low: 22.92 h
[5]; plasma, 12.5 mg/kg IV
  AUClast/MIC: 1.77 h
[5]; plasma, 25 mg/kg IV
  AUClast/MIC: 4.41 h
[5]; plasma, 50 mg/kg IV
  AUClast/MIC: 9.75 h
[5]; plasma, 100 mg/kg IV
  AUClast/MIC: 25.81 h
[5]; thigh, 12.5 mg/kg IV
  AUClast/MIC: 0.25 h
[5]; thigh, 25 mg/kg IV
  AUClast/MIC: 0.43 h
[5]; thigh, 50 mg/kg IV
  AUClast/MIC: 1.56 h
[5]; thigh, 100 mg/kg IV
  AUClast/MIC: 4.30 h
